Results on five compounds are retold here after ChEMBL document CHEMBL1201862, “PubChem BioAssay data set” (2004).

Calls of active or inactive are those of the source. Where only a bound is given, the exact number is not on record here.

Data set [1] concerns the target Endoplasmic reticulum aminopeptidase 1 (Homo sapiens, UniProt Q9NZ08). As to the kind of experiment: ERAP1 aminopeptidase inhibitors, dose response, biochemical, cherry-pick, set 2, plate reader (AID 743314).
Data set [2] has as its target 1-phosphatidylinositol 4,5-bisphosphate phosphodiesterase gamma-1 (Homo sapiens, UniProt P19174). As to the kind of experiment: Counterscreen for inhibitors of phospholipase C isozymes (PLC-B3): Fluorescence-based biochemical high throughput dose response assay to identify inhibitors of phospholipase C isozymes (PLC-gamma1). In general terms: A counterscreen serves to expose hits that act by an unwanted route or on another target.

For data set [3], the target named is 1-phosphatidylinositol 4,5-bisphosphate phosphodiesterase beta-3 (Homo sapiens, UniProt Q01970). As to the kind of experiment: Fluorescence-based biochemical high throughput dose response assay to identify inhibitors of phospholipase C isozymes (PLC-B3).
Chain of 1-phosphatidylinositol 4,5-bisphosphate phosphodiesterase beta-3 (Q01970 whole entry): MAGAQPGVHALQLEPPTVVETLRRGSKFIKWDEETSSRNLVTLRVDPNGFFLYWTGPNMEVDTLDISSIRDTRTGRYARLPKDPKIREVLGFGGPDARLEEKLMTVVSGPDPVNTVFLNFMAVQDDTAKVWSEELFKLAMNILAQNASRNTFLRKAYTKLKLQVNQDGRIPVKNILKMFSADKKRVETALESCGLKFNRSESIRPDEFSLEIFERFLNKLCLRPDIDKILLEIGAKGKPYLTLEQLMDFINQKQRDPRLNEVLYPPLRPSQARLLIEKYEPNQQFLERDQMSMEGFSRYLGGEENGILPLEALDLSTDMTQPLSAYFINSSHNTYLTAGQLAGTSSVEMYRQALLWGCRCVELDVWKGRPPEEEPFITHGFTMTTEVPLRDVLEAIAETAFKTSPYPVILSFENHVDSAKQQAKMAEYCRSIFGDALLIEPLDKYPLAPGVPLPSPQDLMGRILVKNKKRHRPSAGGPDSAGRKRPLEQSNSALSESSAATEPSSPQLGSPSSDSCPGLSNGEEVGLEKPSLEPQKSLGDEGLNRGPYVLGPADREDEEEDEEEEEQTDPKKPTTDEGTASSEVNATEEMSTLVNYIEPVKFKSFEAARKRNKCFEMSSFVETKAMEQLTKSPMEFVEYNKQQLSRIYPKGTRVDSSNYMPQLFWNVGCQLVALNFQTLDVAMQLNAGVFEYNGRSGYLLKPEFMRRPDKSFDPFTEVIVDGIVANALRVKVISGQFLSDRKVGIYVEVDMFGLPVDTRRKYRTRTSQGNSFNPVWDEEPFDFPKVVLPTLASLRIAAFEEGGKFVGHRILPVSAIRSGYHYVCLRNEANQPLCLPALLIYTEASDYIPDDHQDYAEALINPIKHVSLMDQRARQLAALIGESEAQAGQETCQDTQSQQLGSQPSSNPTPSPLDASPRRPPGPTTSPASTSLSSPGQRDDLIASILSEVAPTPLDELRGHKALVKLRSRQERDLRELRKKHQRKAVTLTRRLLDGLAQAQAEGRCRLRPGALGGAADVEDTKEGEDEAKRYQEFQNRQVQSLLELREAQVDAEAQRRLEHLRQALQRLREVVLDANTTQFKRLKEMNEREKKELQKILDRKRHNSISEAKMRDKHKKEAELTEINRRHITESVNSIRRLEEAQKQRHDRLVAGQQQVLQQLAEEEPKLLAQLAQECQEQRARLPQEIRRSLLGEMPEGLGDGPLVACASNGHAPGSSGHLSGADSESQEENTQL
Data set [4] in a line: ADAM10 protease inhibitors, dose response, selectivity assay for ADAM17 exosite inhibitor project, biochemical, FRET peptide substrate, recombinant human ADAM10 (AID 743259).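 Further: ADAM10 enzyme cleaving a FRET peptide substrate.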
For data set [5], the target named is Disintegrin and metalloproteinase domain-containing protein 17 (Homo sapiens, UniProt P78536). Nature of the data set: exosite inhibitors of ADAM17, dose response, biochemical (AID 743260).
Chain of Disintegrin and metalloproteinase domain-containing protein 17 (P78536 whole entry, the tested form may be a part): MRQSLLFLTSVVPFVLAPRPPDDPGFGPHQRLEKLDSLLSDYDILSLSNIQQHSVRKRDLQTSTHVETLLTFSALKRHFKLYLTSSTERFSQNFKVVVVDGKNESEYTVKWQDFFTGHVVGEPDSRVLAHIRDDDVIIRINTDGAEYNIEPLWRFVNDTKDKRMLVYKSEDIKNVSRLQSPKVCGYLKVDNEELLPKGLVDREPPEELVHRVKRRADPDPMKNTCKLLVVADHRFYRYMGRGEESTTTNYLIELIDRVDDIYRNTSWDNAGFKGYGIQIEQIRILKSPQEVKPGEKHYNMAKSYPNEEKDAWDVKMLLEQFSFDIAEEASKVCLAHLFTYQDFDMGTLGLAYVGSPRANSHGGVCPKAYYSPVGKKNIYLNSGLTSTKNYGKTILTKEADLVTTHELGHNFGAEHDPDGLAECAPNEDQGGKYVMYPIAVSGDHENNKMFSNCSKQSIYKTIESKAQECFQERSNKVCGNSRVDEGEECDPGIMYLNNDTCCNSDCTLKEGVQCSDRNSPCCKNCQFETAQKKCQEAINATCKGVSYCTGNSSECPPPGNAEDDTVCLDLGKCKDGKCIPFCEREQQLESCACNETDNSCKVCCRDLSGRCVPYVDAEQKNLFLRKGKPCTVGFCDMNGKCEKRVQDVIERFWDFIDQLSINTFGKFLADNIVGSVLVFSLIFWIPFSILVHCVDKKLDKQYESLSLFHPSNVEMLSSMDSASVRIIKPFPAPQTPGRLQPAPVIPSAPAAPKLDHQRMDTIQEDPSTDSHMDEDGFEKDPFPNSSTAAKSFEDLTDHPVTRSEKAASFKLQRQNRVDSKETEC
The nature of data set [6]: Luminescence-based cell-based high throughput dose response assay to identify activators of the DAF-12 from the parasite S. stercoralis (ssDAF-12). Type of data set: functional.
Data set [7] addresses T1, Oxysterols receptor LXR-beta (Homo sapiens, UniProt P55055).
T1 sequence (P55055 whole entry): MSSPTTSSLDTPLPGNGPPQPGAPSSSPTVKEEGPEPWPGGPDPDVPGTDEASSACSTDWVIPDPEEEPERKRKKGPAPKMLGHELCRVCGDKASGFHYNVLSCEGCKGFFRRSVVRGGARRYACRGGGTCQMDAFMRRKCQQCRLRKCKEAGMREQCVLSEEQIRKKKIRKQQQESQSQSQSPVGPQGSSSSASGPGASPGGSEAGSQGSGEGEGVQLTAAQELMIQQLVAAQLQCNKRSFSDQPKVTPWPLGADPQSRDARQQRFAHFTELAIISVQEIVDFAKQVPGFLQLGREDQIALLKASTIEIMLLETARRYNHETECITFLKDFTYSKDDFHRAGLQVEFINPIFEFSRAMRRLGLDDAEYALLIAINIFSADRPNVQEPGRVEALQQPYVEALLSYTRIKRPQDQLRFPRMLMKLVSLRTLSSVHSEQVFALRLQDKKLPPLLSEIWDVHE
As to the kind of experiment: LXR agonists, Gal4 luciferase reporter, dose response, counter-screen for ssDAF-12 agonist project, cell-based, luminescence, HEK293, S. stercoralis campaign (AID 720737). It counts as functional. To be noted: read-out: IC50 (the source's name). (Reporter assays use an easily measured gene product as a stand-in for the process of interest.)

The target of data set [8] is T2, Sentrin-specific protease 6 (Homo sapiens, UniProt Q9GZR1).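 Further: Luminescence-based dose-response confirmatory assay of SENP6 inhibition, following up an ultra-high-throughput screen.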
T2 sequence (Q9GZR1 whole entry): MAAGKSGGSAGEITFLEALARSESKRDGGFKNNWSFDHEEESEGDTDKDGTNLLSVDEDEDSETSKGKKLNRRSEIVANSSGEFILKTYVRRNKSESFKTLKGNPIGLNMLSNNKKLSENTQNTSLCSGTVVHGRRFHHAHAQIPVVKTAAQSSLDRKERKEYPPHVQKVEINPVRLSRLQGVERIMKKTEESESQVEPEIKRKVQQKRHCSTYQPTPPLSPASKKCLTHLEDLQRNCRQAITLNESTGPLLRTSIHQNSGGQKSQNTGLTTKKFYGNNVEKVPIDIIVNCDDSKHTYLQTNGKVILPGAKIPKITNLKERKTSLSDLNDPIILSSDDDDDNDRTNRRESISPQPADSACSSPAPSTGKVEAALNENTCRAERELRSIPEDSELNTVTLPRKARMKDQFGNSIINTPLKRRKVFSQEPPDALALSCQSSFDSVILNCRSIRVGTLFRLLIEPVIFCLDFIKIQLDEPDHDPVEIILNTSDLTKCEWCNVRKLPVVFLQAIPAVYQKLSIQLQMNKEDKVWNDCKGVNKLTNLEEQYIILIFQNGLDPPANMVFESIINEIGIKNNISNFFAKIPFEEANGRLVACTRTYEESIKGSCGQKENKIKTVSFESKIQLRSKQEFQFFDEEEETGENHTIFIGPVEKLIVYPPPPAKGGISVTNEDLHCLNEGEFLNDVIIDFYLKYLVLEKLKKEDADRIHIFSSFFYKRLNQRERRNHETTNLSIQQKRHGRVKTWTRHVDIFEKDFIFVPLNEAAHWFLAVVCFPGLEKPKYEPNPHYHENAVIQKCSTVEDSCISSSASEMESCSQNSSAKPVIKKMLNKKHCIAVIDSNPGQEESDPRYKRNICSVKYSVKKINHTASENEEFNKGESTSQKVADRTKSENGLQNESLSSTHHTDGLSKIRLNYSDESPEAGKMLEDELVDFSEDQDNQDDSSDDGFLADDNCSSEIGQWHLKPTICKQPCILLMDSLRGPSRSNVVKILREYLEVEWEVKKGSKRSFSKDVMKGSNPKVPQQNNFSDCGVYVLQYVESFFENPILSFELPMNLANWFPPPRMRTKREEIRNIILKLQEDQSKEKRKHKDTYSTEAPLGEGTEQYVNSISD
It counts as functional.

The target in data set [9] is T3, Sentrin-specific protease 7 (Homo sapiens, UniProt Q9BQF6).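 Further: Luminescence-based dose-response confirmation of ultra-high-throughput screening hits, measuring inhibition of SENP7.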
T3 sequence (Q9BQF6 whole entry): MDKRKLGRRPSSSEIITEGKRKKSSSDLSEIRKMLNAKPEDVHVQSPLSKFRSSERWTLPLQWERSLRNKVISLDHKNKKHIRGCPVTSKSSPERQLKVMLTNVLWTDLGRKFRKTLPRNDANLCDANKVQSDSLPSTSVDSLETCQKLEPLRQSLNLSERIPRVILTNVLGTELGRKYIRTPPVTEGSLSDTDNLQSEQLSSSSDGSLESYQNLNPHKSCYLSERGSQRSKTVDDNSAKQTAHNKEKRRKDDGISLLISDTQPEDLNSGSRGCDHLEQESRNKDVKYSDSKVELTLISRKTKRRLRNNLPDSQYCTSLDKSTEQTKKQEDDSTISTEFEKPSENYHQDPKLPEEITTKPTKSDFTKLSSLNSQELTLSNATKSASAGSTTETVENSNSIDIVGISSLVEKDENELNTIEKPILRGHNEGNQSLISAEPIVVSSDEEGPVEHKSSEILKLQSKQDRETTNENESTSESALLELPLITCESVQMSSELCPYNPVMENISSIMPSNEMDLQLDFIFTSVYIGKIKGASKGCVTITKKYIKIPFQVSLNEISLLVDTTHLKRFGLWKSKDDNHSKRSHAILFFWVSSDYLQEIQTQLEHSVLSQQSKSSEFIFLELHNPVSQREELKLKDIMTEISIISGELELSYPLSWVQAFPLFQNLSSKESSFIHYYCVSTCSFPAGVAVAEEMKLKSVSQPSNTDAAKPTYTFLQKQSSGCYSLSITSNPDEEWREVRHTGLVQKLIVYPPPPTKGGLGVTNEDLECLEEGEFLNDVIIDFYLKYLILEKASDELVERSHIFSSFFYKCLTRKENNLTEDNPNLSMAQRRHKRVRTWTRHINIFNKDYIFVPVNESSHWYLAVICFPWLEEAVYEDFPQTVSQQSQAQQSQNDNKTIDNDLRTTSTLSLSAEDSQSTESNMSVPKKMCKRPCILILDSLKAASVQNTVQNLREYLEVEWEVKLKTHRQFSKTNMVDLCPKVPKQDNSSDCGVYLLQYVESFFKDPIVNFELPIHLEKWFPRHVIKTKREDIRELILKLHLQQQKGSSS
It counts as functional.

In the next data set the target is Cytochrome P450 2D6 (Homo sapiens, UniProt P10635).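 Further: CYP2D6 member of a cytochrome P450 panel assay.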
Chain of Cytochrome P450 2D6 (P10635 whole entry): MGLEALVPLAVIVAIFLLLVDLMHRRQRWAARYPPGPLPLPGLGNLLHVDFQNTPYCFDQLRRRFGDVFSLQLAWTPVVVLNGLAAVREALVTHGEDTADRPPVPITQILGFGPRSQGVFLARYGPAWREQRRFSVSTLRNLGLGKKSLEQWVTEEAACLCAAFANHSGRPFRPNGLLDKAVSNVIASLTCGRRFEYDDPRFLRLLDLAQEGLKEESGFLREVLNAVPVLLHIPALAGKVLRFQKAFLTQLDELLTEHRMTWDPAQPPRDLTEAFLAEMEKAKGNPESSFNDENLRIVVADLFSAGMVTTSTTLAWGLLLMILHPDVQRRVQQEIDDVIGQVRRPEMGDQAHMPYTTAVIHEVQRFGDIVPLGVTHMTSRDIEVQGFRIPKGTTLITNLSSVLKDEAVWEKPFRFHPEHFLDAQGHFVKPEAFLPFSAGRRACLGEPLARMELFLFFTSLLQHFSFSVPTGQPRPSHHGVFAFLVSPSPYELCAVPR
In a further data set the target is Cytochrome P450 2C9 (Homo sapiens, UniProt P11712).
Chain of Cytochrome P450 2C9 (P11712 whole entry): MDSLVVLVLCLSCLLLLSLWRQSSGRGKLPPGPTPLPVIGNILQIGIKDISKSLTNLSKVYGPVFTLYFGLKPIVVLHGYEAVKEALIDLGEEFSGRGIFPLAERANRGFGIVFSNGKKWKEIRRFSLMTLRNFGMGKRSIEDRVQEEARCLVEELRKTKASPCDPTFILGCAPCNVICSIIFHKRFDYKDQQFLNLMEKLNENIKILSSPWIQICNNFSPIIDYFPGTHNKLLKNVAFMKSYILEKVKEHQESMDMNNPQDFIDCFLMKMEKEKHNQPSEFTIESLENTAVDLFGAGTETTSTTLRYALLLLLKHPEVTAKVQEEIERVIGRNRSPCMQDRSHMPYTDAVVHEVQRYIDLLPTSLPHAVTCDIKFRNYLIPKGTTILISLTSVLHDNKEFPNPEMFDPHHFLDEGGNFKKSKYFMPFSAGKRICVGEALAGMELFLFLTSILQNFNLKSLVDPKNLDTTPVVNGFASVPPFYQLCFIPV
The target of a further data set is T4, Caspase-3 (Homo sapiens, UniProt P42574).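 Further: Dose-response selectivity test against caspase-3 for candidate inhibitors of sentrin-specific proteases (SENPs).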
T4 sequence (P42574 whole entry): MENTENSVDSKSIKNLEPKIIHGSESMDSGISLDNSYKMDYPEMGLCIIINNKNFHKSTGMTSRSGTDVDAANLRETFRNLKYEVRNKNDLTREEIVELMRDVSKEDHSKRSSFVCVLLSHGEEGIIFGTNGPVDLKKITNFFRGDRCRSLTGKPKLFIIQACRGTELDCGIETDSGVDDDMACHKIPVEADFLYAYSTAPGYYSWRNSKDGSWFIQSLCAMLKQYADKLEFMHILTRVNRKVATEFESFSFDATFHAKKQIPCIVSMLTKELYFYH
Type of data set: functional.

Data set [10] concerns the target T5, Sentrin-specific protease 8 (Homo sapiens, UniProt Q96LD8).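 Further: luminescence read-out of SENP8 inhibition, dose-response confirmation following an ultra-high-throughput screen.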
T5 sequence (Q96LD8 whole entry): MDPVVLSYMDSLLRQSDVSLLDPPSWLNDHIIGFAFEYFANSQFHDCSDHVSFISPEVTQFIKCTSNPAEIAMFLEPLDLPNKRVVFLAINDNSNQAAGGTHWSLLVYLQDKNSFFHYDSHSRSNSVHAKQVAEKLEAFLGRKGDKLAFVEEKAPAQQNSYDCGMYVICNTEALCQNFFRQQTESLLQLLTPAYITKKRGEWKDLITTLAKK
Type of data set: functional.

In data set [11] the target is T1, Oxysterols receptor LXR-beta. It counts as functional, cell-based.

Chain of 1-phosphatidylinositol 4,5-bisphosphate phosphodiesterase gamma-1 (P19174 whole entry): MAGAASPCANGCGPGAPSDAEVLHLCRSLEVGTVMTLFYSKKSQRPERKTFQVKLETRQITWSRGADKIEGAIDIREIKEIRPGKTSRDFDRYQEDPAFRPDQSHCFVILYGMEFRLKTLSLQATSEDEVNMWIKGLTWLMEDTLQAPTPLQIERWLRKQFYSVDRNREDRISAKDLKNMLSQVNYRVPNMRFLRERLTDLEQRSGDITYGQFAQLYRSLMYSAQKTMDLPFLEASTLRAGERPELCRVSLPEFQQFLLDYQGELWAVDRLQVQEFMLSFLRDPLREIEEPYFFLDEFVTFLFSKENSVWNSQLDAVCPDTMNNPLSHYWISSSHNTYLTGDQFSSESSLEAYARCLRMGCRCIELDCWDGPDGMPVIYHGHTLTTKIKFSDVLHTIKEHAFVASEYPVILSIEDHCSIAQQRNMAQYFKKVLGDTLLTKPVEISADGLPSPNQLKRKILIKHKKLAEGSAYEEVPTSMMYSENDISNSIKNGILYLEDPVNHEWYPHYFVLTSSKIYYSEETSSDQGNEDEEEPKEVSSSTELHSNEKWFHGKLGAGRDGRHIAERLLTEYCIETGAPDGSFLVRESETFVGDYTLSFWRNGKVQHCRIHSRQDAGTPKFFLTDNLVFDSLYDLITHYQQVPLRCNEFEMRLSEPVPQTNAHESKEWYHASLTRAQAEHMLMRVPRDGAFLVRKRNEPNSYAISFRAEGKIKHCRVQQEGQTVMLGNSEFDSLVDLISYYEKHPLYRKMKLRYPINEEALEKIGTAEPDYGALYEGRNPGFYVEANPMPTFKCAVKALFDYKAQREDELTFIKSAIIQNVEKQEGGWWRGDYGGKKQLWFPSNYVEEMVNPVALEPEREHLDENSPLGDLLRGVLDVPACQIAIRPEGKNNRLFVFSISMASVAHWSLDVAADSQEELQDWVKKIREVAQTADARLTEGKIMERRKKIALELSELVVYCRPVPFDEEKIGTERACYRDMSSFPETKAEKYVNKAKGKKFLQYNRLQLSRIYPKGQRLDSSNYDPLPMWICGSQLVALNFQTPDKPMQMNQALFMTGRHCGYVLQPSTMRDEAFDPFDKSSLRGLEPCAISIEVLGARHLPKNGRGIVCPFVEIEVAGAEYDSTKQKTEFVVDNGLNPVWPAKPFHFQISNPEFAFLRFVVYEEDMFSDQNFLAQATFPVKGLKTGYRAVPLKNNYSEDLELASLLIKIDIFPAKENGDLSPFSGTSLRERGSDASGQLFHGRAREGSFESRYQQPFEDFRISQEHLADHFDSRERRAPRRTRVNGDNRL

For the compound `Cc1cc(=O)oc2c(CN3CCCC3)c(O)ccc12`, the AC50 in data set [1] is 11.8 µM (active).

As to `COc1ccnc2c1c(=O)n(Cc1ccc(Cl)cc1Cl)c(=O)n2C`, the IC50 in data set [2] and in data set [3] was > 122 µM (inactive) in each case.

For `Cc1ccc(C2=NS(=O)(=O)N(C)C(C(=O)Nc3ccc4c(c3)OCO4)=C2)cc1`, the IC50 in data set [4] was 19 µM (inactive); in data set [5], > 69.5 µM (inactive).

Take `CCOc1ccccc1-n1nnnc1SCc1nc2ccccc2s1`: the IC50 in data set [6] was > 67.5 µM (inactive). The EC50 in [7] is > 67.5 µM (inactive).

For the compound `O=[N+]([O-])c1cccnc1NCCNc1ncc(C(F)(F)F)cc1Cl`, the IC50 was 19.1 µM (active) in [8], 6.52 µM (active) in data set [9], 28.7 µM (active) at Caspase-3 and 23.3 µM (active) in data set [10]. Further, the AC50 on Cytochrome P450 2D6 is 14.1 µM (inconclusive); at Cytochrome P450 2C9, “inconclusive”. Further, the EC50 in data set [11] was > 67.5 µM (inactive).

A word on the AC50: it is the concentration giving half of the maximal activity seen. What is called IC50 is the concentration needed to halve the response being measured.
